In US11072588B2, “Barbituric acid derivatives comprising cationic and lipophilic groups” (UNIVERSITETET I TROMSØ—NORGES ARKTISKE UNIVERSITET, priority 2017, dated 2021):
In brackets after ≈: the same amount, converted by molar mass. Where two headings read alike, the source gives them in different places.

Tests used:
P. aeruginosa K34-7 = assay: MIC, multi-resistant clinical isolate; type: cell-based, Pseudomonas aeruginosa; conditions: for MIC: Pseudomonas aeruginosa, K347, read-out: Antimicrobial activity (MIC); for selectivity index (EC50/MIC): RBC EC50 / MIC, P. aeruginosa K34-7
Procedure: (§1) Working solutions of the test derivatives were prepared with up to 100% DMSO and stored at −20° C. If necessary, the solutions were heated to 40-80° C. before testing to facilitate complete dissolution. Double-distilled water was used in all dilutions prepared. […] A microdilution susceptibility test was used for MIC determination according to Clinical and Laboratory Standards Institute, “Methods for Dilution Antimicrobial Sisceptibility Tests for Bacteria That Graw Aerobically”, Approved Standard M07-A9, edition 2012, with modifications as described by Igumnova et al (Bioorg Med Chem, 2016, 24 (22), 5884-5894).
(§2) Briefly, the bacterial inoculum was adjusted to approximately 2.5-3×10^4 cells/mL in Mueller-Hinton broth (MHB, Difco Laboratories, USA), and incubated in a ratio of 1:1 with test derivatives in polystyrene 96-well flat-bottom microplates (NUNC, Roskilde, Denmark). Positive growth control (without test derivatives) and negative control (without bacteria) were included. The reference antibiotic was oxytetracycline hydrochloride (Sigma Aldrich, Saint Louis, Mo., USA). The microplates were incubated in an EnVision microplate reader (Perkin-Elmer, Turku, Finland) placed in an incubator set to 35° C. for 48 h. The MIC value was defined as the lowest concentration of derivative resulting in no bacterial growth as determined by OD600 measurement. All derivatives were tested in three parallels.
(§3) The MIC was determined as explained above with some exceptions; working solutions of test derivatives were prepared from concentrated DMSO stocks stored at room temperature, the density of the bacterial inoculum was increased 40× to 1-1.2×10^6 cells/mL, enterococci were incubated in Brain Heart Infusion broth (BHIB, Difco Laboratories, USA), the microplates were incubated for 24 h, and the derivatives were tested in four parallels.

P. aeruginosa 50692520 = assay: MIC, multi-resistant clinical isolate; type: cell-based, Pseudomonas aeruginosa; conditions: for MIC: Pseudomonas aeruginosa, read-out: Antimicrobial activity (MIC); for selectivity index (EC50/MIC): RBC EC50 / MIC
Procedure: as §1, §2, §3

P. aeruginosa K34-73 = assay: MIC, multi-resistant clinical isolate; type: cell-based, Pseudomonas aeruginosa; conditions: P. aeruginosa K34-73; for MIC: Pseudomonas aeruginosa, K3473, read-out: Antimicrobial activity (MIC); for selectivity index (EC50/MIC): RBC EC50 / MIC
Procedure: as §1, §2, §3

P. aeruginosa K44-24 = assay: MIC, multi-resistant clinical isolate; type: cell-based, Pseudomonas aeruginosa; conditions: for MIC: Pseudomonas aeruginosa, K4424, read-out: Antimicrobial activity (MIC); for selectivity index (EC50/MIC): RBC EC50 / MIC
Procedure: as §1, §2, §3

P. aeruginosa 50692172 = assay: MIC, multi-resistant clinical isolate; type: cell-based, Pseudomonas aeruginosa; conditions: for MIC: Pseudomonas aeruginosa, read-out: Antimicrobial activity (MIC); for selectivity index (EC50/MIC): RBC EC50 / MIC
Procedure: as §1, §2, §3

E. coli 50579417 = assay: MIC, multi-resistant clinical isolate; type: cell-based, Escherichia coli; conditions: for MIC: Escherichia coli, read-out: Antimicrobial activity (MIC); for selectivity index (EC50/MIC): RBC EC50 / MIC
Procedure: as §1, §2, §3

E. coli 50639799 = assay: MIC, multi-resistant clinical isolate; type: cell-based, Escherichia coli; conditions: for MIC: Escherichia coli, read-out: Antimicrobial activity (MIC); for selectivity index (EC50/MIC): RBC EC50 / MIC
Procedure: as §1, §2, §3

E. coli 50857972 = assay: MIC, multi-resistant clinical isolate; type: cell-based, Escherichia coli; conditions: for MIC: Escherichia coli, read-out: Antimicrobial activity (MIC); for selectivity index (EC50/MIC): RBC EC50 / MIC
Procedure: as §1, §2, §3

E. coli 50739822 = assay: MIC, multi-resistant clinical isolate; type: cell-based, Escherichia coli; conditions: for MIC: Escherichia coli, read-out: Antimicrobial activity (MIC); for selectivity index (EC50/MIC): RBC EC50 / MIC
Procedure: as §1, §2, §3

E. coli 50676002 = assay: MIC, multi-resistant clinical isolate; type: cell-based, Escherichia coli; conditions: E. coli 50676002; for MIC: Escherichia coli, read-out: Antimicrobial activity (MIC); for selectivity index (EC50/MIC): RBC EC50 / MIC
Procedure: as §1, §2, §3

K. pneumoniae K47-25 = assay: MIC, multi-resistant clinical isolate; type: cell-based, Klebsiella pneumoniae; conditions: K. pneumoniae K47-25, resistant to colistin; for MIC: Klebsiella pneumoniae, K4725, 24 h, read-out: Antimicrobial activity (MIC); for selectivity index (EC50/MIC): RBC EC50 / MIC
Procedure: as §1, §2, §3

K. pneumoniae 50667959 = assay: MIC, multi-resistant clinical isolate; type: cell-based, Klebsiella pneumoniae; conditions: for MIC: Klebsiella pneumoniae, read-out: Antimicrobial activity (MIC); for selectivity index (EC50/MIC): RBC EC50 / MIC
Procedure: as §1, §2, §3

K. pneumoniae K66-45 = assay: MIC, multi-resistant clinical isolate; type: cell-based, Klebsiella pneumoniae; conditions: for MIC: Klebsiella pneumoniae, K6645, read-out: Antimicrobial activity (MIC); for selectivity index (EC50/MIC): RBC EC50 / MIC, K. pneumoniae K66-45
Procedure: as §1, §2, §3

A. baumanii K63-58 = assay: MIC, multi-resistant clinical isolate; type: cell-based, Acinetobacter baumannii; conditions: A. baumanii K63-58, resistant to colistin; for MIC: Acinetobacter baumannii, K6358, 24 h, read-out: Antimicrobial activity (MIC); for selectivity index (EC50/MIC): RBC EC50 / MIC
[1] = test system: panel of 30 multi-resistant clinical isolates of Gram-positive and Gram-negative bacteria; assay: MIC screening, ranges over the panel of clinical isolates; type: cell-based
Procedure: as §1, §2, §3

[2] = test system: human metastatic melanoma (A2058, ATCC CRL-11147) cells; assay: Anti-cancer activity against A2058 cells; type: cell-based; conditions: A2058, read-out: Anti-cancer IC50
How it was run: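 A2058 melanoma cells seeded at 2,000/well overnight, then exposed to a concentration range in serum-free MEM (gentamycin, NEAA, pyruvate, glutamine) for 24 h (cytotoxicity stated as after 72 h exposure). MTS-type tetrazolium reagent added for 1 h; absorbance at 485 nm; % survival versus medium and Triton X-100 controls.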

[3] = test system: Corynebacterium glutamicum ATCC 13032; assay: MIC assay, antibiotic susceptible reference strain; type: cell-based; conditions: Corynebacterium glutamicum, ATCC13032, read-out: Antimicrobial activity (MIC) C. g
How it was run: (§4)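 Broth microdilution followed CLSI M07-A9 with modifications: inoculum ~2.5-3×10^4 cells/mL in Mueller-Hinton broth, mixed 1:1 with test derivative, incubated 48 h at 35 °C. MIC was the lowest concentration giving no growth by OD600, tested in three parallels, with oxytetracycline as reference antibiotic.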

[4] = test system: Escherichia coli ATCC 25922; assay: MIC assay, antibiotic susceptible reference strain; type: cell-based; conditions: Escherichia coli, ATCC25922, read-out: Antimicrobial activity (MIC) E. c
How it was run: as §4

[5] = test system: Pseudomonas aeruginosa PA01, DSM 19880 (ATCC 15692); assay: MIC assay, antibiotic susceptible reference strain; type: cell-based; conditions: Pseudomonas aeruginosa, read-out: Antimicrobial activity (MIC) P. a
How it was run: as §4

[6] = test system: Staphylococcus aureus ATCC 9144; assay: MIC assay, antibiotic susceptible reference strain; type: cell-based; conditions: Staphylococcus aureus, ATCC9144, read-out: Antimicrobial activity (MIC) S. a
How it was run: as §4

SMILES	MIC (P. aeruginosa K34-7) [µg/mL]	selectivity index (EC50/MIC) (P. aeruginosa K34-7)	MIC (P. aeruginosa 50692520) [µg/mL]	selectivity index (EC50/MIC) (P. aeruginosa 50692520)	MIC (P. aeruginosa K34-73) [µg/mL]	selectivity index (EC50/MIC) (P. aeruginosa K34-73)	MIC (P. aeruginosa K44-24) [µg/mL]	selectivity index (EC50/MIC) (P. aeruginosa K44-24)	MIC (P. aeruginosa 50692172) [µg/mL]	selectivity index (EC50/MIC) (P. aeruginosa 50692172)	MIC (E. coli 50579417) [µg/mL]	selectivity index (EC50/MIC) (E. coli 50579417)	MIC (E. coli 50639799) [µg/mL]	selectivity index (EC50/MIC) (E. coli 50639799)	MIC (E. coli 50857972) [µg/mL]	selectivity index (EC50/MIC) (E. coli 50857972)	MIC (E. coli 50739822) [µg/mL]	selectivity index (EC50/MIC) (E. coli 50739822)	MIC (E. coli 50676002) [µg/mL]	selectivity index (EC50/MIC) (E. coli 50676002)	other results
N=C(N)NCCCCN1C(=O)N(CCCCNC(=N)N)C(=O)C(Cc2cc(Br)cc(Br)c2)(Cc2cc(Br)cc(Br)c2)C1=O [8(ii), 1,1′-(4,4′-(5,5-bis(3,5-dibromobenzyl)-2,4,6-trioxodihydropyrimidine-1,3(2H,4H)-diyl)bis(butane-4,1-diyl))diguanidine]	8 (≈ 9.41 µM)	(7)	16 (≈ 18.8 µM)	(4)	8 (≈ 9.41 µM)	(7)	8 (≈ 9.41 µM)	(7)	8 (≈ 9.41 µM)	(7)	4 (≈ 4.7 µM)	(14)	4 (≈ 4.7 µM)	(14)	4 (≈ 4.7 µM)	(14)	4 (≈ 4.7 µM)	(14)	4 (≈ 4.7 µM)	(14)	MIC (K. pneumoniae K47-25): 4 µg/mL (≈ 4.7 µM); selectivity index (EC50/MIC) (K. pneumoniae K47-25): (14); MIC (K. pneumoniae 50667959): 4 µg/mL (≈ 4.7 µM); selectivity index (EC50/MIC) (K. pneumoniae 50667959): (14); MIC (K. pneumoniae K66-45): 4 µg/mL (≈ 4.7 µM); selectivity index (EC50/MIC) (K. pneumoniae K66-45): (14); MIC (A. baumanii K63-58): 4 µg/mL (≈ 4.7 µM); selectivity index (EC50/MIC) (A. baumanii K63-58): (14); MIC ([1]; read-out: MIC values against all the 30 multi-resistant clinical isolates): 2 to 16 µg/mL (≈ 2.35 to 18.8 µM); IC50 [2]: 2 µg/mL (≈ 2.35 µM); MIC [3]: 0.25 µg/mL (≈ 0.294 µM); MIC [4]: 2 µg/mL (≈ 2.35 µM); MIC [5]: 4 µg/mL (≈ 4.7 µM); MIC [6]: 1 µg/mL (≈ 1.18 µM)
N=C(N)NCCCCN1C(=O)N(CCCCNC(=N)N)C(=O)C(Cc2ccc3ccccc3c2)(Cc2ccc3ccccc3c2)C1=O [8(iv), 1,1′-(4,4′-(5,5-bis(naphthalen-2-ylmethyl)-2,4,6-trioxodihydropyrimidine-1,3(2H,4H)-diyl)bis(butane-4,1-diyl))-diguanidine]	32 (≈ 50.4 µM)	(4)	32 (≈ 50.4 µM)	(4)	32 (≈ 50.4 µM)	(4)	32 (≈ 50.4 µM)	(4)	32 (≈ 50.4 µM)	(4)	16 (≈ 25.2 µM)	(8)	8 (≈ 12.6 µM)	(17)	8 (≈ 12.6 µM)	(17)	8 (≈ 12.6 µM)	(17)	8 (≈ 12.6 µM)	(17)	MIC (K. pneumoniae K47-25): 16 µg/mL (≈ 25.2 µM); selectivity index (EC50/MIC) (K. pneumoniae K47-25): (8); MIC (K. pneumoniae 50667959): 16 µg/mL (≈ 25.2 µM); selectivity index (EC50/MIC) (K. pneumoniae 50667959): (8); MIC (K. pneumoniae K66-45): 16 µg/mL (≈ 25.2 µM); selectivity index (EC50/MIC) (K. pneumoniae K66-45): (8); MIC (A. baumanii K63-58): 32 µg/mL (≈ 50.4 µM); selectivity index (EC50/MIC) (A. baumanii K63-58): (4); MIC ([1]; Enterococcus faecium, read-out: MIC values against the Gram-positive isolates of S. aurues and E. faecium): 8 to 16 µg/mL (≈ 12.6 to 25.2 µM); IC50 [2]: 8 µg/mL (≈ 12.6 µM); MIC [3]: 0.25 µg/mL (≈ 0.394 µM); MIC [4]: 1 µg/mL (≈ 1.58 µM); MIC [5]: 8 µg/mL (≈ 12.6 µM); MIC [6]: 1 µg/mL (≈ 1.58 µM)
